The assay has as its target Potassium voltage-gated channel subfamily KQT member 2 (Rattus norvegicus, UniProt O88943). Kind of assay: KCNQ2 potassium channel inhibitors, dose response, cell-based, automated electrophysiology, set II, rat KCNQ2 (AID 588637).

Sequence of Potassium voltage-gated channel subfamily KQT member 2 (O88943 whole entry): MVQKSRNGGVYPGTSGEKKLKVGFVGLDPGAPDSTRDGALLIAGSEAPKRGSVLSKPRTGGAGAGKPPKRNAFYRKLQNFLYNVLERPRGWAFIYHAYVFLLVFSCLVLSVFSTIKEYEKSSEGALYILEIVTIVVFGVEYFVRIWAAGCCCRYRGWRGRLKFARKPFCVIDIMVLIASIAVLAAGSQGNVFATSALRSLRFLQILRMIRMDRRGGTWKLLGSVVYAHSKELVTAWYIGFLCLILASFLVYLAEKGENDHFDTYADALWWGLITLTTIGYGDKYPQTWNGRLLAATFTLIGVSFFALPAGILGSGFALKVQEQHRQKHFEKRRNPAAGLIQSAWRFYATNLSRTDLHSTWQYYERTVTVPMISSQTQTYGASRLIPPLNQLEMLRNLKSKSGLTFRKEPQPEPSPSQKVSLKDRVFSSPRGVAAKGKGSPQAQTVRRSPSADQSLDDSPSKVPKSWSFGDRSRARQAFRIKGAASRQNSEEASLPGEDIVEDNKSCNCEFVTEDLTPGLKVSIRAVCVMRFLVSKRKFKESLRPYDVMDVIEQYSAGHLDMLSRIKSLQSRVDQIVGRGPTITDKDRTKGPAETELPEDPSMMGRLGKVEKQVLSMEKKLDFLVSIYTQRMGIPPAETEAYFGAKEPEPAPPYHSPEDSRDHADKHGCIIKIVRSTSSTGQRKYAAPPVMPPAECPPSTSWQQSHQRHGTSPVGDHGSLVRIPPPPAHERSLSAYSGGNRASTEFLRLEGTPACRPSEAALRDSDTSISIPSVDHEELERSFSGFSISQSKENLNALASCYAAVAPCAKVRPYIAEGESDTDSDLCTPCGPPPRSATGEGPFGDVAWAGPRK

In the case of `COc1ccc(-[n+]2c(-c3ccccc3)cc(-c3ccc(C)cc3)cc2-c2ccccc2)cc1`, the concentration for half-maximal inhibition (IC50) – broadly, the midpoint of a concentration-inhibition curve – came out at 11.1 µM. With `CC(N=Nc1nc(N2CCCCCC2)nc(N2CCCCCC2)n1)c1ccccc1` (configuration not stated) [(1E)-1-phenylethanone (4,6-diazepan-1-yl-1,3,5-triazin-2-yl)hydrazone], half-maximal inhibition (IC50) was put at 1.62 µM.

The values above are taken from BindingDB's records for doi:10.7270/Q2W37TT2 (Johns Hopkins Ion Channel Center, 2011).
